# Laboratory results published in US9566262B2, “Itch suppression by fucoxanthin” (THE RITSUMEIKAN TRUST, priority 2015, dated 2017).
# Key:
# Cebpα = assay: Real time PCR gene expression in bone marrow cells cultured with IL-3; type: cell-based, mice; settings: vs DMSO
# Procedure: (§1) Bone marrow cells obtained from 8-week-old female mice was cultured in a medium for conditioning containing IL-3. On the day the bone marrow cells were obtained (day 0), 10 μM fucoxanthin or dimethyl sulfoxide (DMSO) as a control was added to the culture solution and the cells were cultured for 1, 2, 3 or 4 weeks. Quantitative real time PCR was performed according to the method described in Kosaka et al. (supra). Five different cDNA pool dilutions were used for the experiments. The expression levels of PCR products were normalized to that of a housekeeping gene, GAPDH or β-actin, and the measured values were compared with cycle threshold value (Ct value). The primers used are shown below.
# (§2) The housekeeping genes GAPDH and β-actin were used for normalization as internal standards. All measurements were performed 4 times.
# FcεRIα = assay: as above; type: cell-based, mice; settings: 10 μM added day 0, cultured 1-4 weeks, vs DMSO
# Procedure: as §1, §2
# GATA-1 = assay: as above; type: cell-based, mice; settings: 10 μM added day 0, cultured 1-4 weeks, vs DMSO
# Procedure: as §1, §2
# GATA-2 = assay: as above; type: cell-based, mice; settings: 10 μM added day 0, cultured 1-4 weeks, vs DMSO
# Procedure: as §1, §2
# Mitf1 = assay: as above; type: cell-based, mice; settings: 10 μM added day 0, cultured 1-4 weeks, vs DMSO
# Procedure: as §1, §2
# PU.1 = assay: as above; type: cell-based, mice; settings: 10 μM added day 0, cultured 1-4 weeks, vs DMSO
# Procedure: as §1, §2
# [1] = system: histidine decarboxylase (Hdc); assay: as above; type: cell-based, mice; settings: 10 μM added day 0, cultured 1-4 weeks, vs DMSO
# Procedure: as §1, §2
# GATA-luc = assay: Luciferase reporter assay in HEK293 cells; type: cell-based; settings: HEK293, treated 3 hours after transfection for 48 hours, vs DMSO (fucoxanthin 0.1, 1, 10 μM)
# Description: The plasmids pGL3-Cebpα promoter-luc and pGL3-Mitf1 promoter-luc were provided by Dr. Hua Huang (University of Colorado school, Denver, USA). The plasmid NF-κB-luc was purchased from Agilent Technologies (Santa Clara, Calif.). The GATA-responsive reporter vector was provided by Dr. Ishijima (Takasaki University of Health and welfare, Gunma, Japan). Three GATA motifs from mouse α-1 globulin gene (5′-TGATAA-3′) were tandemly inserted into Sma I site of pRBGP3. HDC promoter was provided by Dr. Ootsu (Tohoku University school of Medicine, Sendai, Japan) and cloned into Kpn I-Hind III site of pGL4.10 (Hdc promoter-luc). The reporter assay was performed according to the method described in Kanatani, N. et al. Briefly, HEK293 cells were transfected with each of the luciferase constructs (0.2 μg) or pRL-CMV (Promega, Madison, Wis.) (0.001 μg). At 3 hours after transfection, the cells were treated with fucoxanthin (0.1 μM, 1 μM or 10 μM) or DMSO for 48 hours and reporter assay was performed using Dual-Luciferase® Reporter Assay System (Promega). Luciferase activity was measured using luminometer model TD20/20n (Turner BioSystems, Sunnyvale, Calif.) and normalized to Renilla luciferase activity expressed by CMV promoter.
# GATA-reporter assay was performed using HEK293 cells expressing GATA-luc prepared in Example 8, in the same manner as described in Example 8 except using various carotenoids (fucoxanthin, astaxanthin, lycopene, β-carotene or retinoic acid) in place of fucoxanthin.
compound,measurement,setting,value
CC(=O)O[C@H]1CC(C)(C)C(=C=C/C(C)=C/C=C/C(C)=C/C=C/C=C(C)/C=C/C=C(\C)C(=O)C[C@@]23O[C@]2(C)C[C@@H](O)CC3(C)C)[C@](C)(O)C1 [fucoxanthin],"expression of Cebpα, 3 to 4 weeks","Cebpα; 10 μM added day 0, 3 to 4 weeks after starting culture",remarkably upregulated
same,"expression of Cebpα, first 2 weeks","Cebpα; 10 μM added day 0, first 2 weeks of culture",downregulated
same,expression of FcεRIα,FcεRIα,downregulated
same,expression of GATA-1,GATA-1,downregulated
same,expression of GATA-2,GATA-2,downregulated
same,expression of Mitf1,Mitf1,did not change significantly
same,expression of PU.1,PU.1,did not change significantly
same,expression of Hdc,[1],downregulated
same,GATA-luc expression,GATA-luc,downregulated
